# Publication PMC11129975, “A first-in-human phase I study of TAS-117, an allosteric AKT inhibitor, in patients with advanced solid tumors” (Cancer Chemotherapy and Pharmacology, 2024)
# Legend:
# [1] = tested on: advanced or metastatic solid tumors; assay: Antitumor activity, best overall response by RECIST version 1.1; type: in vivo, human
# Description: The phosphorylation status of PRAS40 in the blood was measured with an electrochemiluminescence detection assay using a Meso Scale Discovery instrument (Meso Scale Diagnostics, Rockville, MD, US). For efficacy, solid tumors were assessed using Response Evaluation Criteria in Solid Tumors (RECIST; version 1.1).
# [2] = design: method as in data on file, Taiho Pharmaceutical Co., Ltd.; conditions: ref data on file, Taiho Pharmaceutical Co., Ltd., cited from earlier work
# NCI-N87 = conditions: oral dosing; NCI-N87 (HER2 amplification); cited from earlier work
# KPL-4 = conditions: oral dosing; KPL-4 (HER2 amplification, PIK3CA mutation); cited from earlier work
# [3] = RMP (intermittent dosing) Level 4 (24 mg) n = 6
# [4] = RMP (intermittent dosing) Level 5 (32 mg) n = 4
# [5] = SAP (intermittent dosing) Cohort 1 Level 4 n = 16
# [6] = SAP (intermittent dosing) Cohort 2 Level 4 n = 7
# [7] = SAP (intermittent dosing) Cohort 3 Level 4 n = 20
smiles,measurement,setting,value
C[C@]1(O)C[C@@](N)(c2ccc(-c3nc4n(c3-c3ccccc3)COc3ccncc3-4)cc2)C1 [TAS-117],Best overall response: CR,[1]; DEP (QD) Level 1 (4 mg) n = 2,0 n (%)
same,Best overall response: NE,[1]; DEP (QD) Level 1 (4 mg) n = 2,0 n (%)
same,Best overall response: Non-CR/non-PD,[1]; DEP (QD) Level 1 (4 mg) n = 2,0 n (%)
same,Best overall response: PD,[1]; DEP (QD) Level 1 (4 mg) n = 2,2 (100.0) n (%)
same,Best overall response: PR,[1]; DEP (QD) Level 1 (4 mg) n = 2,0 n (%)
same,Best overall response: SD,[1]; DEP (QD) Level 1 (4 mg) n = 2,0 n (%)
same,DCR (CR + PR + SD + non-CR/non-PD),[1]; DEP (QD) Level 1 (4 mg) n = 2,0 n (%)
same,RR (CR + PR),[1]; DEP (QD) Level 1 (4 mg) n = 2,0 n (%)
same,Best overall response: CR,[1]; DEP (QD) Level 2 (8 mg) n = 1,0 n (%)
same,Best overall response: NE,[1]; DEP (QD) Level 2 (8 mg) n = 1,0 n (%)
same,Best overall response: Non-CR/non-PD,[1]; DEP (QD) Level 2 (8 mg) n = 1,0 n (%)
same,Best overall response: PD,[1]; DEP (QD) Level 2 (8 mg) n = 1,0 n (%)
same,Best overall response: PR,[1]; DEP (QD) Level 2 (8 mg) n = 1,0 n (%)
same,Best overall response: SD,[1]; DEP (QD) Level 2 (8 mg) n = 1,1 (100.0) n (%)
same,DCR (CR + PR + SD + non-CR/non-PD),[1]; DEP (QD) Level 2 (8 mg) n = 1,1 (100.0) n (%)
same,RR (CR + PR),[1]; DEP (QD) Level 2 (8 mg) n = 1,0 n (%)
same,Best overall response: CR,[1]; DEP (QD) Level 3 (16 mg) n = 6,0 n (%)
same,Best overall response: NE,[1]; DEP (QD) Level 3 (16 mg) n = 6,0 n (%)
same,Best overall response: Non-CR/non-PD,[1]; DEP (QD) Level 3 (16 mg) n = 6,0 n (%)
same,Best overall response: PD,[1]; DEP (QD) Level 3 (16 mg) n = 6,6 (100.0) n (%)
same,Best overall response: PR,[1]; DEP (QD) Level 3 (16 mg) n = 6,0 n (%)
same,Best overall response: SD,[1]; DEP (QD) Level 3 (16 mg) n = 6,0 n (%)
same,DCR (CR + PR + SD + non-CR/non-PD),[1]; DEP (QD) Level 3 (16 mg) n = 6,0 n (%)
same,RR (CR + PR),[1]; DEP (QD) Level 3 (16 mg) n = 6,0 n (%)
same,Best overall response: CR,[1]; DEP (QD) Level 4 (24 mg) n = 3,0 n (%)
same,Best overall response: NE,[1]; DEP (QD) Level 4 (24 mg) n = 3,0 n (%)
same,Best overall response: Non-CR/non-PD,[1]; DEP (QD) Level 4 (24 mg) n = 3,0 n (%)
same,Best overall response: PD,[1]; DEP (QD) Level 4 (24 mg) n = 3,2 (66.7) n (%)
same,Best overall response: PR,[1]; DEP (QD) Level 4 (24 mg) n = 3,0 n (%)
same,Best overall response: SD,[1]; DEP (QD) Level 4 (24 mg) n = 3,1 (33.3) n (%)
same,DCR (CR + PR + SD + non-CR/non-PD),[1]; DEP (QD) Level 4 (24 mg) n = 3,1 (33.3) n (%)
same,RR (CR + PR),[1]; DEP (QD) Level 4 (24 mg) n = 3,0 n (%)
same,Best overall response: CR,[1]; [3],0 n (%)
same,Best overall response: NE,[1]; [3],0 n (%)
same,Best overall response: Non-CR/non-PD,[1]; [3],0 n (%)
same,Best overall response: PD,[1]; [3],4 (66.7) n (%)
same,Best overall response: PR,[1]; [3],0 n (%)
same,Best overall response: SD,[1]; [3],2 (33.3) n (%)
same,DCR (CR + PR + SD + non-CR/non-PD),[1]; [3],2 (33.3) n (%)
same,RR (CR + PR),[1]; [3],0 n (%)
same,Best overall response: CR,[1]; [4],0 n (%)
same,Best overall response: NE,[1]; [4],0 n (%)
same,Best overall response: Non-CR/non-PD,[1]; [4],0 n (%)
same,Best overall response: PD,[1]; [4],4 (100.0) n (%)
same,Best overall response: PR,[1]; [4],0 n (%)
same,Best overall response: SD,[1]; [4],0 n (%)
same,DCR (CR + PR + SD + non-CR/non-PD),[1]; [4],0 n (%)
same,RR (CR + PR),[1]; [4],0 n (%)
same,Patients with confirmed partial response,[1]; SAP,Four patients
same,Best overall response: CR,[1]; [5],0 n (%)
same,Best overall response: NE,[1]; [5],0 n (%)
same,Best overall response: Non-CR/non-PD,[1]; [5],0 n (%)
same,Best overall response: PD,[1]; [5],5 (31.3) n (%)
same,Best overall response: PR,[1]; [5],1 (6.3) n (%)
same,Best overall response: SD,[1]; [5],10 (62.5) n (%)
same,DCR (CR + PR + SD + non-CR/non-PD),[1]; [5],11 (68.8) n (%)
same,RR (CR + PR),[1]; [5],1 (6.3) n (%)
same,Best overall response: CR,[1]; [6],0 n (%)
same,Best overall response: NE,[1]; [6],0 n (%)
same,Best overall response: Non-CR/non-PD,[1]; [6],0 n (%)
same,Best overall response: PD,[1]; [6],1 (14.3) n (%)
same,Best overall response: PR,[1]; [6],0 n (%)
same,Best overall response: SD,[1]; [6],6 (85.7) n (%)
same,DCR (CR + PR + SD + non-CR/non-PD),[1]; [6],6 (85.7) n (%)
same,RR (CR + PR),[1]; [6],0 n (%)
same,Best overall response: CR,[1]; [7],0 n (%)
same,Best overall response: NE,[1]; [7],0 n (%)
same,Best overall response: Non-CR/non-PD,[1]; [7],0 n (%)
same,Best overall response: PD,[1]; [7],12 (60.0) n (%)
same,Best overall response: PR,[1]; [7],3 (15.0) n (%)
same,Best overall response: SD,[1]; [7],5 (25.0) n (%)
same,DCR (CR + PR + SD + non-CR/non-PD),[1]; [7],8 (40.0) n (%)
same,RR (CR + PR),[1]; [7],3 (15.0) n (%)
same,Confirmed PR,"[1]; SAP cohort 1 (endometrial cancer with PIK3CA mutation), 1 of 16 patients",6.3%
same,DCR,[1]; SAP cohort 2,85.7%
same,DCR,[1]; SAP cohort 3,40.0%
same,Confirmed PR,"[1]; SAP cohort 3 (ovarian clear cell carcinoma), 3 of 20 patients",15.0%
same,DCR,"[1]; SAP, cohort 1",68.8%
same,Best overall response: CR,[1]; Total N = 65,0 n (%)
same,Best overall response: NE,[1]; Total N = 65,0 n (%)
same,Best overall response: Non-CR/non-PD,[1]; Total N = 65,0 n (%)
same,Best overall response: PD,[1]; Total N = 65,36 (55.4) n (%)
same,Best overall response: PR,[1]; Total N = 65,4 (6.2) n (%)
same,Best overall response: SD,[1]; Total N = 65,25 (38.5) n (%)
same,DCR (CR + PR + SD + non-CR/non-PD),[1]; Total N = 65,29 (44.6) n (%)
same,RR (CR + PR),[1]; Total N = 65,4 (6.2) n (%)
same,DCR,[1]; dose level 2 in the DEP,100%
same,Highest non-severely toxic dose,[2]; 4-week repeated oral dose,1.2 mg/kg/day
same,Toxicity findings,[2]; repeated dosing,dysregulation of carbohydrate metabolism and atrophic changes in the lymphatic/hematopoietic organs and adipocytes
same,Antitumor activity,NCI-N87,demonstrated single-agent antitumor activity
same,Antitumor activity,KPL-4,demonstrated single-agent antitumor activity
